Two compounds from patent US9308210B2, “Method for modulating canonical Wnt pathway using folate and inositol” (University of South Florida, priority 2009, dated 2016) can be followed below.

Assay [1] deals with Wnt pathway-associated and lipid metabolism genes. Nature of the assay: Affymetrix microarray of E15.5 embryonic heart tissue after Li+ or HCys exposure with or without FA. The class given is in vivo, mouse. The source says:
The inbred C57B16 mouse strain (Jackson Laboratories, Bar Harbor, Me.) was used throughout this study. It has become recognized that mouse strains can differ in their response to environmental factors (Andrikopoulos et al., 2005; Barnabei et al., 2010; Funkat et al., 2004). Thus, the mouse strain being used should be taken into consideration when comparing different studies. Morning of detection of the vaginal sperm plug was defined as embryonic day (E) 0.5. Timed-pregnant mice were randomly allocated to receive intraperitoneally (i.p.) either a single dose of 100 μl of 6.25 mg/ml of lithium chloride (Li+), as previously determined (Chen et al., 2008), 100 μl of 75 μM HCys (Han et al., 2009), or 100 μl of 0.9% physiological saline (control group). […]
As in the previous studies, animal chow was supplemented with 10.5 mg/kg folic acid (FA), a concentration that has been used in trial human population studies (Czeizel et al., 2013; Han et al., 2009). […] On ED 6.75 (at 5:30 PM) experimental pregnant females received Li+ or HCys by an i.p. injection that the inventors reported induces a high incidence of valve and heart defects as detected by echocardiography at mid-gestation on ED 15.5 (Han et al., 2009).
The inventors analyzed for gene misexpression in the embryonic heart on E15.5 of gestation, i.e., over a week after the acute exposures. […]

The test system of assay [2] is Acadm and Acadl gene expression. The assay is described as follows: RT-PCR of Acadm and Acadl in E7.5 embryos and E15.5 hearts. The class given is in vivo, mouse. As to conditions: for Acadm expression: E15.5 hearts, versus control hearts. The source says:
The gene expression data were validated by RT-PCR in mouse embryos at both E 7.5 (a half day after exposure) and at E15.5 and by in situ hybridization for tissue localization analyses. The inventors chose E 7.5 to determine early gestational changes in gene expression and to define whether these expression changes were maintained during pregnancy to E 15.5. Digoxigenin labeled probes and alkaline phosphatase secondary antibody detection for in situ hybridization were used (Roche, Inc., Indianapolis, Ind.).

Structures can show the parent of a compound that is named as a salt.

`Nc1nc2ncc(CNc3ccc(C(=O)N[C@@H](CCC(=O)O)C(=O)O)cc3)nc2c(=O)[nH]1` [FA, folic acid]: in assay [1] (Li or HCys exposure, FA 10.5 mg/kg diet), the “changes in lipid metabolism gene expression with high FA supplementation” value is on record as “prevented”. Further, in assay [2], the Acadm expression entry is “returned the expression close to control levels”.
For `N[C@H]1CCSC1=O` [HCy, L-homocysteine thiolactone hydrochloride], the “Wnt pathway-associated gene expression” value in assay [1] (E15.5 hearts after acute exposure at E6.75) is reported as “significantly misexpressed”. For the same compound, the Acadm/Acadl gene expression result in assay [2] (E7.5, versus control embryos, FA from morning after conception) is on record as “slightly down-regulated”. The Acadm expression entry in assay [2] is on record as “upregulation”.
